Source: PMC9552247 (Addiction biology, 2022)

Biological target: human DAT (CHO-DAT) (Homo sapiens, UniProt Q01959)
Details: labelled compound, 60 nM, pH 7.4, 37°C

Sequence of human DAT (CHO-DAT) (Q01959 whole entry): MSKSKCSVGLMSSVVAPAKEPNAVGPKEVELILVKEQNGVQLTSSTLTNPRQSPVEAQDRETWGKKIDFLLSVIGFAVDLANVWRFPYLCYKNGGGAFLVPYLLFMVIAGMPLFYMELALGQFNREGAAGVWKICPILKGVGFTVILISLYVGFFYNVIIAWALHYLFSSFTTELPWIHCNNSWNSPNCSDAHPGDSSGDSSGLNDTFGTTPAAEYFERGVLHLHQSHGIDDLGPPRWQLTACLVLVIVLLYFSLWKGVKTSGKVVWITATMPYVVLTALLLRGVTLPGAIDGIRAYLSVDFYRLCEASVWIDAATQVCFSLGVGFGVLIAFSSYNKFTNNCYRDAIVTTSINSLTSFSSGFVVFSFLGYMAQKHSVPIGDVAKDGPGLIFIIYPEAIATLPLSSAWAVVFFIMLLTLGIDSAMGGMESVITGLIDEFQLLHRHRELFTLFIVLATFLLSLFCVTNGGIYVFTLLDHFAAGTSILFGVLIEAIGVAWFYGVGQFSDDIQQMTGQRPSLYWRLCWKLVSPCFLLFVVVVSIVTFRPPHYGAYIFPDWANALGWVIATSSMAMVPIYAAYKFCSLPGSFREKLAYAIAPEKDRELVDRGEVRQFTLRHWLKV

NCCc1ccc(O)c(O)c1 [dopamine]
[3H]-dopamine uptake in CHO-DAT cells: cells expressing the DA transporter (CHO-DAT) using tritiated dopamine
